Patent EP0302824A2 (priority 1987, dated 1989)
Like-named read-outs stand apart in the source and are kept apart here.

How the values were obtained:
[1] = Sw = solubility in water
[2] = format: physicochemical; conditions: coated maize kernels in 200 ml water, 20°C, 50 rpm
[3] = format: physicochemical; conditions: sand column; 50 mm artificial rainfall in 48 hours; 5 g/kg a.i.
[4] = not given; remark: listed apart in the source
corn rootworms = assay: Field control of corn rootworms by insecticide/polymer combinations applied to the seed; format: in vivo, Diabrotica spp.; conditions: maize G 4733, 0-6 scale, 63 days after planting
[5] = Solubilization of terbufos in individual and combined surfactant solutions; conditions: for Terbufos Concentration (ppm) Individual Surfactant: maximum 100 ppm terbufos in solution
[6] = Release of terbufos from coated corn cob granules into buffer; format: physicochemical
[7] = Solubility of terbufos in water with increasing concentration of surfactant or association polymer
[8] = Solubility of terbufos in neat surfactants and PEGs, judged by eye
[9] = Time release of terbufos from coated maize seeds into buffer; format: physicochemical

Compound: CCOP(=S)(OCC)Oc1nc(Cl)n(C(C)C)n1 [isazofos]
- Sw in ppm [1]: 150 ppm
- Released Active Substance in % After 4 Hours Association Polymer 17.1 [2]: 80.8%
- Released Active Substance in % After 4 Hours Standard Polymer 18.1 [2]: 63.5%
- Solubility (ppm) (isazophos in H₂O): 62 ppm
- Solubility (ppm) (isazophos, 1000 ppm A1, HLB ∼30): 84 ppm
- Solubility (ppm) (isazophos, 1000 ppm A2, HLB ∼30): 58 ppm
- Solubility (ppm) (isazophos, 1000 ppm A4, HLB ∼30): 180 ppm
- Solubility (ppm) (isazophos, 1000 ppm A5, HLB ∼30): 11 ppm
- Solubility (ppm) (isazophos, 1000 ppm AM1): 98 ppm
- Solubility (ppm) (isazophos, 1000 ppm N3, HLB 13.4): 260 ppm
- Solubility (ppm) (isazophos, 1000 ppm N9, HLB 22): 130 ppm
- Solubility (ppm) (isazophos, 1000 ppm N11, HLB 29): 92 ppm
- Solubility (ppm) (isazophos, 1000 ppm N18, HLB 17.3): 130 ppm
- Solubility (ppm) (isazophos, 1000 ppm N24, HLB 15.0): 170 ppm
- % a.i. Analyzed in "Traditional" Coats Kernels [3]: 68.2%
- % a.i. Analyzed in "Traditional" Coats Leachate [3]: < 0.5%
- % a.i. Analyzed in "Traditional" Coats Sand [3]: 22.9%
- % a.i. Analyzed in Association Polymer Kernels [3]: 30.1%
- % a.i. Analyzed in Association Polymer Leachate [3]: 34.9%
- % a.i. Analyzed in Association Polymer Sand [3]: 39.7%

Compound: CNC(=O)Oc1cccc2c1OC(C)(C)C2 [carbofuran]
- Solubility of Carbofuran, ppm ([4]; 1000 ppm Alipal EP110): 349 ppm
- Solubility of Carbofuran, ppm ([4]; 1000 ppm Ethomeen T/15): 436 ppm
- Solubility of Carbofuran, ppm ([4]; 1000 ppm Pluronic F68): 287 ppm
- Solubility of Carbofuran, ppm ([4]; 1000 ppm Triton N101): 370 ppm
- increase in solubility in surfactant solution over that in water ([4]; Ethomeen T/15, 1000 ppm): 30%
- Solubility of Carbofuran, ppm ([4]; H₂O): 330 ppm
- increase in solubility in surfactant solution over that in water ([4]; Triton (N101), 1000 ppm): 10%

Compound: CCOP(=S)(OCC)SCSC(C)(C)C [terbufos]
- Ratings for corn rootworm damage (corn rootworms; Granule, 0.1 g m⁻¹): 2.2
- Ratings for corn rootworm damage (corn rootworms; seed treatment Association Polymer, 10 g/kg): 2.6
- Ratings for corn rootworm damage (corn rootworms; seed treatment PVAc/PVAl, 10 g/kg): 3.1
- Ratings for corn rootworm damage (corn rootworms; seed treatment PVAc/PVAl, 30 g/kg): 2.8
- Terbufos Concentration (ppm) Individual Surfactant ([5]; A2, 1000 ppm): 2.0 ppm
- Terbufos Concentration (ppm) Combination Surfactant With C2 ([5]; A2 with C2, 5 ml portions (1000 ppm) of each, maximum 100 ppm): 38 ppm
- Terbufos Concentration (ppm) Combination Surfactant With N3 ([5]; A2 with N3, 5 ml portions (1000 ppm) of each, maximum 100 ppm): 13 ppm
- Terbufos Concentration (ppm) Individual Surfactant ([5]; A4, 1000 ppm): 3.4 ppm
- Terbufos Concentration (ppm) Combination Surfactant With N3 ([5]; A4 with N3, 5 ml portions (1000 ppm) of each, maximum 100 ppm): 28 ppm
- Terbufos Concentration (ppm) Individual Surfactant ([5]; C2, 1000 ppm): 12 ppm
- Terbufos Concentration (ppm) Combination Surfactant ([5]; C2 with N3, 5 ml portions (1000 ppm) of each, maximum 100 ppm): 64 ppm
- Terbufos Concentration (ppm) Individual Surfactant ([5]; N3, 1000 ppm): 65 ppm
- Terbufos Concentration (ppm) Individual Surfactant ([5]; N7, 1000 ppm): 1.1 ppm
- Terbufos Concentration (ppm) Combination Surfactant With C2 ([5]; N7 with C2, 5 ml portions (1000 ppm) of each, maximum 100 ppm): 6.7 ppm
- Terbufos Concentration (ppm) Combination Surfactant With N3 ([5]; N7 with N3, 5 ml portions (1000 ppm) of each, maximum 100 ppm): 54 ppm
- Terbufos Concentration (ppm) Individual Surfactant ([5]; N8, 1000 ppm): 1.2 ppm
- Terbufos Concentration (ppm) Combination Surfactant With C2 ([5]; N8 with C2, 5 ml portions (1000 ppm) of each, maximum 100 ppm): 39 ppm
- Terbufos Concentration (ppm) Combination Surfactant With N3 ([5]; N8 with N3, 5 ml portions (1000 ppm) of each, maximum 100 ppm): 40 ppm
- Terbufos Concentration (ppm) Individual Surfactant ([5]; N10, 1000 ppm): 0.7 ppm
- Terbufos Concentration (ppm) Combination Surfactant With C2 ([5]; N10 with C2, 5 ml portions (1000 ppm) of each, maximum 100 ppm): 36 ppm
- Terbufos Concentration (ppm) Combination Surfactant With N3 ([5]; N10 with N3, 5 ml portions (1000 ppm) of each, maximum 100 ppm): 38 ppm
- Terbufos Concentration (ppm) Individual Surfactant ([5]; N11, 1000 ppm): 0.5 ppm
- Terbufos Concentration (ppm) Combination Surfactant With C2 ([5]; N11 with C2, 5 ml portions (1000 ppm) of each, maximum 100 ppm): 9.5 ppm
- Terbufos Concentration (ppm) Combination Surfactant With N3 ([5]; N11 with N3, 5 ml portions (1000 ppm) of each, maximum 100 ppm): 24 ppm
- Terbufos Concentration (ppm) ([6]; Buffer = 10 ml (Triton = 1000 ppm), 0.5 hours): 61 ppm
- Terbufos Concentration (ppm) ([6]; Buffer = 10 ml (Triton = 1000 ppm), 1 hour): 86 ppm
- Terbufos Concentration (ppm) ([6]; Buffer = 10 ml (Triton = 1000 ppm), 2 hours): 104 ppm
- Terbufos Concentration (ppm) ([6]; Buffer = 10 ml (Triton = 1000 ppm), 3 hours): 81 ppm
- Terbufos Concentration (ppm) ([6]; Buffer = 10 ml (Triton = 1000 ppm), 4 hours): 60 ppm
- Terbufos Concentration (ppm) ([6]; Buffer = 10 ml (Triton = 1000 ppm), 5 hours): 60 ppm
- Terbufos Concentration (ppm) ([6]; Buffer = 20 ml (Triton = 500 ppm), 0.5 hours): 53 ppm
- Terbufos Concentration (ppm) ([6]; Buffer = 20 ml (Triton = 500 ppm), 1 hour): 39 ppm
- Terbufos Concentration (ppm) ([6]; Buffer = 20 ml (Triton = 500 ppm), 3 hours): 34 ppm
- Terbufos Concentration (ppm) ([6]; Buffer = 20 ml (Triton = 500 ppm), 4 hours): 44 ppm
- Terbufos Concentration (ppm) ([6]; Buffer = 20 ml (Triton = 500 ppm), 5 hours): 51 ppm
- Terbufos Concentration (ppm) ([6]; Buffer = 20 ml (Triton = 500 ppm), 22 hours): 29 ppm
- Terbufos Concentration (ppm) ([6]; Buffer = 100 ml (Triton = 100 ppm), 0.25 hours): 2.7 ppm
- Terbufos Concentration (ppm) ([6]; Buffer = 100 ml (Triton = 100 ppm), 0.5 hours): 3.2 ppm
- Terbufos Concentration (ppm) ([6]; Buffer = 100 ml (Triton = 100 ppm), 1 hour): 3.3 ppm
- Terbufos Concentration (ppm) ([6]; Buffer = 100 ml (Triton = 100 ppm), 1.5 hours): 4.3 ppm
- Terbufos Concentration (ppm) ([6]; Buffer = 100 ml (Triton = 100 ppm), 2 hours): 4.7 ppm
- Terbufos Concentration (ppm) ([6]; Buffer = 100 ml (Triton = 100 ppm), 3 hours): 4.6 ppm
- Terbufos Concentration (ppm) ([6]; Buffer = 100 ml (Triton = 100 ppm), 4 hours): 5.9 ppm
- Terbufos Concentration (ppm) ([6]; Buffer = 100 ml (Triton = 100 ppm), 5 hours): 5.5 ppm
- Terbufos Concentration (ppm) ([6]; Buffer = 100 ml (Triton = 100 ppm), 6 hours): 5.1 ppm
- Terbufos Concentration (ppm) ([6]; Buffer = 100 ml (Triton = 100 ppm), 7 hours): 6.7 ppm
- Terbufos Concentration (ppm) ([6]; Buffer = 100 ml (Triton = 100 ppm), 28 hours): 7.5 ppm
- terbufos concentration ([7]; 575 ppm surfactant a) (N3, Triton N101)): 64 ppm
- terbufos concentration ([7]; 603 ppm surfactant portion b) (half of 1206 ppm 1:1 association polymer PA 5000:N3)): 52 ppm
- solubility in neat surfactants (no water present) or polyethylene glycols, judged by eye ([8]; 5 µl terbufos in 200 µl of Cl, C2, C4, C7, Al, N1, N4, N5, N6, N8, N12, N24, N25, N26, PEG 200 or PEG 400): Soluble
- solubility in neat surfactants (no water present), judged by eye ([8]; 5 µl terbufos in 200 µl of anionic A2, A3, A5 or A6): Insoluble
- Terbufos Concentration (ppm), Time Release from Coated Seeds ([9]; Association Polymer (no PVAc), Buffer pH = 5.6, 0.5 hour): 370 ppm
- Terbufos Concentration (ppm), Time Release from Coated Seeds ([9]; Association Polymer (no PVAc), Buffer pH = 5.6, 2 hours): 350 ppm
- Terbufos Concentration (ppm), Time Release from Coated Seeds ([9]; Association Polymer (no PVAc), Buffer pH = 5.6, 4 hours): 360 ppm
- Terbufos Concentration (ppm), Time Release from Coated Seeds ([9]; Association Polymer+PVAc, Buffer pH 5.6, 0.5 hour): 130 ppm
- Terbufos Concentration (ppm), Time Release from Coated Seeds ([9]; Association Polymer+PVAc, Buffer pH 5.6, 2 hours): 147 ppm
- Terbufos Concentration (ppm), Time Release from Coated Seeds ([9]; Association Polymer+PVAc, Buffer pH 5.6, 4 hours): 210 ppm
- Terbufos Concentration (ppm), Time Release from Coated Seeds ([9]; Association Polymer+PVAc, Buffer pH 5.6, 26 hours): 163 ppm
- Terbufos Concentration (ppm), Time Release from Coated Seeds ([9]; Association Polymer+PVAc, Buffer pH 5.6, 69.5 hours): 122 ppm
- Terbufos Concentration (ppm), Time Release from Coated Seeds ([9]; Association Polymer+PVAc, Buffer pH 8.3, 0.5 hour): 210 ppm
- Terbufos Concentration (ppm), Time Release from Coated Seeds ([9]; Association Polymer+PVAc, Buffer pH 8.3, 2 hours): 240 ppm
- Terbufos Concentration (ppm), Time Release from Coated Seeds ([9]; Association Polymer+PVAc, Buffer pH 8.3, 4 hours): 260 ppm
- Terbufos Concentration (ppm), Time Release from Coated Seeds ([9]; Association Polymer+PVAc, Buffer pH=3.3, 2 hours): 22 ppm
- Terbufos Concentration (ppm), Time Release from Coated Seeds ([9]; Association Polymer+PVAc, Buffer pH=3.3, 4 hours): 7.6 ppm
- Terbufos Concentration (ppm), Time Release from Coated Seeds ([9]; PVAc, Buffer pH=5.6, 4 hours): 1.9 ppm
- Terbufos Concentration (ppm), Time Release from Coated Seeds ([9]; PVAc, Buffer pH=5.6, 26 hours): 2.4 ppm
